“Also recorded” adds a separate entry of the source. Where no end group is shown, it is not given here.
What was measured:
p53 = p53 activity and dependence; format: cell-based; conditions: prostate cancer cells; data not shown
Cos cells = experiment: Proliferation/cytotoxicity, sGCα1-deficient Cos cells (MTT); format: cell-based, African green monkey; conditions: different concentrations, Fig. 3E
Protocol: LNCaP, C81, PC-3 and Cos cells were grown as previously described. CWR-22Rv1 cells were cultured in RMPI-1640 medium with 10% FBS and 50 µg/ml Gentamicin (Gibco). Control siRNA, sGCα1 siRNA and AKT siRNA (Dharmacon) at 50 nM final concentration was transfected into cells using Lipofectamine siMAX (Invitrogen).
(§1) For proliferation, cells were grown in medium containing 2% FBS extracted with dextran-coated charcoal (DCC). 48 hours later, ethanol or 1 nM R1881 was added to the cells followed by peptide treatment. The MTT assay (Sigma) was used as before to determine cell number. For apoptosis, 5000 cells were seeded in 96-well plates and treated with Vehicle (DMSO), Peptide A-8R (25 µM), Etoposide (50 µM) (Sigma) at different time points. The Caspase (3/7) activity was measured using Apo-ONE Homogeneous Caspase-3/7 assay kit (Promega). PARP cleavage was also used to measure apoptosis, and is described below.
Vehicle or different concentrations of Peptide A-8R or C-8R, as shown, was added to (A) hormone-dependent LNCaP cells grown in 2% serum without or with 1 nM R1881, (C) castration-resistant C81 or CWR-22Rv1 cells, or (E) sGCα1-deficient PC-3 or Cos cells. Cell number was measured after various days of incubation. Data points represent averages of three independent experiments plus standard deviations. […]

AKT = experiment: Western blot of AKT in cells; format: cell-based; conditions: LNCaP, 25 µM, Fig. S4A
Protocol: (§2) Western blotting was performed as described using primary antibodies against sGCα1 (Cayman Chemical), pan-Akt (Cell Signaling Technology), phospho-AKT (S473, T308) (Cell Signaling Technology), phospho-PDK1 (Cell Signaling Technology), phospho-GSK-3β (Cell Signaling Technology), PARP (Cell Signaling Technology), and β-Actin (Abcam).
Supplementary file pone.0064189.s004.tif: Figure S4 Peptide A-mediated down-regulation of AKT is not involved in its cytotoxicity to prostate cancer cells. Western blotting was used to measure the levels of total AKT or Ser-473-phosphorylated AKT in (A) LNCaP cells treated with Vehicle, Peptide A-8R, or Peptide C-8R (25 µM) for different times, as shown, (B) mouse xenograft tumors treated with Vehicle or Peptide A-8R, or (C) LNCaP cells infected with Empty or AKT-expressing adenovirus and treated with Peptide A-8R at different concentration, as shown, for 30 min. Note that β-actin was used to control for protein loading. (D) LNCaP cells, infected with Empty or AKT-expressing adenovirus, were grown in 10% serum under different concentrations of Peptide A-8R, as shown. Cell number was measured after 0–6 days of incubation. Data points represent averages of three independent experiments plus standard deviations. (TIF) Click here for additional data file.

[1] = test system: PARP cleavage in LNCaP cells; experiment: PARP cleavage by Western blot, LNCaP cells; format: cell-based; conditions: 50 µM each drug, 8 hrs, Fig. 5D
Protocol: as §1, §2
Figure 5 Peptide A-8R induces apoptosis of prostate cancer cells. (A) LNCaP, (B) PC-3, or (C) Cos cells were treated with Vehicle, Peptide A-8R (10 µM), or Etoposide (20 µM) for 0–24 hrs and subjected to a Caspase assay to measure apoptosis. […] (D) LNCaP cells were treated with Vehicle, Peptide C-8R, Peptide A-8R, or Etoposide (each drug at 50 µM) for 8 hrs and monitored for apoptosis by measuring PARP cleavage using Western blotting. […]

[2] = test system: ROS generation in PC-3 cells; experiment: ROS generation, PC-3 cells; format: cell-based; conditions: 0–30 min; Fig. S5A
Protocol: Intracellular ROS levels were evaluated using the fluorescent probe 5-(and-6)-chloromethyl-2′,7′-dichlorodihydrofluorescein diacetate (CM-H2DCFDA) (Invitrogen). After treatments with Peptide A-8R, C81 cells were loaded with 20 µM CM-H2DCFDA and incubated at 37°C for 30 min in the dark. Cells were then washed with PBS and fluorescence was measured at the excitation and emission wavelengths of 490 and 535 nm, respectively, using a multi-well fluorescence plate reader. For NAC (N-acetyl cysteine) (Sigma) rescue experiment, cells were pretreated with 1 or 5 mM NAC for 2 hours before adding Peptide A-8R.
Supplementary file pone.0064189.s005.tif: Figure S5 ROS generation is not induced by Peptide A-8R in PC-3 cells and Peptide C-8R in LNCaP cells. (A) PC-3 cells were treated with Vehicle or different concentrations of Peptide A-8R or Peptide C-8R, as shown, or (B) LNCaP cells were treated with Vehicle or different concentrations of Peptide A-8R or Peptide C-8R, or H2O2 and monitored for ROS generation after 0–30 (A) or 30 (B) min. (C) LNCaP cells were treated with Vehicle, Peptide C-8R (10 µM), Peptide A-8R (10 µM), or Etoposide (100 µM) for 0–8 hrs and subjected to a Caspase assay to measure apoptosis. Bar graphs represent averages of three independent experiments plus standard deviations. (C) All activities are relative to the first condition, and this activity was set to either 1. […]

In the case of Ac-TFCKAFPFHIIRRRRRRRR [Peptide A-8R], the “effect on p53 activity and p53 dependence of apoptosis” value (p53) is reported as “does not disrupt p53 activity nor depend on endogenous p53 for inducing apoptosis”, the “effect on Cos cells” value (Cos cells) is reported as “little to no effect” and the “effect on phosphorylated AKT level” value (AKT; Ser-473) is reported as “similarly affected”. For the same substance, the “effect on total AKT protein level” value (AKT; time course, 50 min) was “strong, time-dependent negative effect on the AKT protein, such that by 50 min most of the measurable AKT is gone; also recorded: significantly reduces AKT protein levels”, the “induction of PARP cleavage” value [1] was “to the same extent as by Etoposide” and the “ROS generation, PC-3 cells” value [2] was “do not respond; also recorded: not induced”.

— paper PMC3664642, “A Peptide against Soluble Guanylyl Cyclase α1: A New Approach to Treating Prostate Cancer” (PLoS ONE, 2013)
